Results reported in PubChem BioAssay AID2060895 (Molecular Pharmacology Branch, DTP, NCI, 2025).

Test system: PDC 899932-113-R3-J6 complex spheroid viability
Assay: Anticancer human tumor 899932-113-R3-J6-PDC patient-derived melanoma cell line growth inhibition [RAS]
Details: for IC50: curve of first compound; for viability, T/C: stronger effect = lower value
In short: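 Multi-cell-type spheroids: tumor cells plus HUVEC endothelial cells and mesenchymal stem cells. RAS-pathway inhibitors were combined with targeted agents, each dosed in half-log steps down from clinical Cmax, or from 10 microM when Cmax was unknown.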
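Wherever viability, T/C is given: spheroids exposed to agents for seven days before readout; 100% = DMSO vehicle control wells.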

Compound: CC(C)n1nc(-c2ccc3oc(N)nc3c2)c2c(N)ncnc21 + CCn1c(-c2cccnc2C(C)OC)c2c3cc(ccc31)N1CCOC(CC(NC(=O)C(C(C)C)N(C)C(=O)C3(F)CCN(C(=O)C#CC(C)(C)N(C)C)CC3)C(=O)N3CCCC(N3)C(=O)OCC(C)(C)C2)C1
- IC50 (second compound 0.000949 µM): > 0.1 µM
- IC50 (second compound 0.003 µM): > 0.1 µM
- IC50 (second compound 0.00949 µM): > 0.1 µM
- IC50 (second compound 0.03 µM): > 0.1 µM
- IC50 (second compound 0.0949 µM): > 0.1 µM
- IC50 (second compound 0.3 µM): > 0.1 µM
- viability, T/C (second compound 0.000949 µM, first compound 0.000316 µM): 107%
- viability, T/C (second compound 0.000949 µM, first compound 0.001 µM): 97.1%
- viability, T/C (second compound 0.000949 µM, first compound 0.00316 µM): 101%
- viability, T/C (second compound 0.000949 µM, first compound 0.01 µM): 85%
- viability, T/C (second compound 0.000949 µM, first compound 0.0316 µM): 60.3%
- viability, T/C (second compound 0.000949 µM, first compound 0.1 µM): 100%
- viability, T/C (second compound 0.003 µM, first compound 0.000316 µM): 92.3%
- viability, T/C (second compound 0.003 µM, first compound 0.001 µM): 107%
- viability, T/C (second compound 0.003 µM, first compound 0.00316 µM): 96.7%
- viability, T/C (second compound 0.003 µM, first compound 0.01 µM): 82%
- viability, T/C (second compound 0.003 µM, first compound 0.0316 µM): 65%
- viability, T/C (second compound 0.003 µM, first compound 0.1 µM): 102%
- viability, T/C (second compound 0.00949 µM, first compound 0.000316 µM): 105%
- viability, T/C (second compound 0.00949 µM, first compound 0.001 µM): 100%
- viability, T/C (second compound 0.00949 µM, first compound 0.00316 µM): 92.5%
- viability, T/C (second compound 0.00949 µM, first compound 0.01 µM): 85.6%
- viability, T/C (second compound 0.00949 µM, first compound 0.0316 µM): 65.5%
- viability, T/C (second compound 0.00949 µM, first compound 0.1 µM): 100%
- viability, T/C (second compound 0.03 µM, first compound 0.000316 µM): 104%
- viability, T/C (second compound 0.03 µM, first compound 0.001 µM): 98.5%
- viability, T/C (second compound 0.03 µM, first compound 0.00316 µM): 89.3%
- viability, T/C (second compound 0.03 µM, first compound 0.01 µM): 86.1%
- viability, T/C (second compound 0.03 µM, first compound 0.0316 µM): 61%
- viability, T/C (second compound 0.03 µM, first compound 0.1 µM): 94.3%
- viability, T/C (second compound 0.0949 µM, first compound 0.000316 µM): 95.2%
- viability, T/C (second compound 0.0949 µM, first compound 0.001 µM): 93.5%
- viability, T/C (second compound 0.0949 µM, first compound 0.00316 µM): 91.3%
- viability, T/C (second compound 0.0949 µM, first compound 0.01 µM): 76.7%
- viability, T/C (second compound 0.0949 µM, first compound 0.0316 µM): 61.1%
- viability, T/C (second compound 0.0949 µM, first compound 0.1 µM): 93.1%
- viability, T/C (second compound 0.3 µM, first compound 0.000316 µM): 86.7%
- viability, T/C (second compound 0.3 µM, first compound 0.001 µM): 80.1%
- viability, T/C (second compound 0.3 µM, first compound 0.00316 µM): 75.6%
- viability, T/C (second compound 0.3 µM, first compound 0.01 µM): 57.9%
- viability, T/C (second compound 0.3 µM, first compound 0.0316 µM): 51.2%
- viability, T/C (second compound 0.3 µM, first compound 0.1 µM): 92.9%

Compound: Nc1ccn(C2OC(CO)C(O)C2(F)F)c(=O)n1 (centres undefined) + C#Cc1c(F)ccc2cc(O)cc(-c3ncc4c(N5CC6CCC(C5)N6)nc(OCC56CCCN5CC(F)C6)nc4c3F)c12
- IC50 (second compound 0.0316 µM): 0.0176 µM
- IC50 (second compound 0.1 µM): 0.0193 µM
- IC50 (second compound 0.316 µM): 0.0171 µM
- IC50 (second compound 1 µM): 0.0192 µM
- IC50 (second compound 3.16 µM): 0.0165 µM
- IC50 (second compound 10 µM): 0.0176 µM
- viability, T/C (second compound 0.0316 µM, first compound 0.00316 µM): 102%
- viability, T/C (second compound 0.0316 µM, first compound 0.01 µM): 65.1%
- viability, T/C (second compound 0.0316 µM, first compound 0.0316 µM): 35.3%
- viability, T/C (second compound 0.0316 µM, first compound 0.1 µM): 21.2%
- viability, T/C (second compound 0.0316 µM, first compound 0.316 µM): 18.6%
- viability, T/C (second compound 0.0316 µM, first compound 1 µM): 22.1%
- viability, T/C (second compound 0.1 µM, first compound 0.00316 µM): 95%
- viability, T/C (second compound 0.1 µM, first compound 0.01 µM): 71.7%
- viability, T/C (second compound 0.1 µM, first compound 0.0316 µM): 34.3%
- viability, T/C (second compound 0.1 µM, first compound 0.1 µM): 18.9%
- viability, T/C (second compound 0.1 µM, first compound 0.316 µM): 20.5%
- viability, T/C (second compound 0.1 µM, first compound 1 µM): 20.6%
- viability, T/C (second compound 0.316 µM, first compound 0.00316 µM): 99.1%
- viability, T/C (second compound 0.316 µM, first compound 0.01 µM): 65.1%
- viability, T/C (second compound 0.316 µM, first compound 0.0316 µM): 33.7%
- viability, T/C (second compound 0.316 µM, first compound 0.1 µM): 17.9%
- viability, T/C (second compound 0.316 µM, first compound 0.316 µM): 20.2%
- viability, T/C (second compound 0.316 µM, first compound 1 µM): 20.1%
- viability, T/C (second compound 1 µM, first compound 0.00316 µM): 99.2%
- viability, T/C (second compound 1 µM, first compound 0.01 µM): 70.4%
- viability, T/C (second compound 1 µM, first compound 0.0316 µM): 35.6%
- viability, T/C (second compound 1 µM, first compound 0.1 µM): 16.4%
- viability, T/C (second compound 1 µM, first compound 0.316 µM): 15.3%
- viability, T/C (second compound 1 µM, first compound 1 µM): 20.8%
- viability, T/C (second compound 3.16 µM, first compound 0.00316 µM): 103%
- viability, T/C (second compound 3.16 µM, first compound 0.01 µM): 65.6%
- viability, T/C (second compound 3.16 µM, first compound 0.0316 µM): 29.9%
- viability, T/C (second compound 3.16 µM, first compound 0.1 µM): 19.8%
- viability, T/C (second compound 3.16 µM, first compound 0.316 µM): 17.5%
- viability, T/C (second compound 3.16 µM, first compound 1 µM): 18.8%
- viability, T/C (second compound 10 µM, first compound 0.00316 µM): 102%
- viability, T/C (second compound 10 µM, first compound 0.01 µM): 67.2%
- viability, T/C (second compound 10 µM, first compound 0.0316 µM): 33.5%
- viability, T/C (second compound 10 µM, first compound 0.1 µM): 15.2%
- viability, T/C (second compound 10 µM, first compound 0.316 µM): 18.3%
- viability, T/C (second compound 10 µM, first compound 1 µM): 19.2%
